We go through 9 molecules from US5464834A, “N-substituted N'-heterobicyclic piperazines having pharmaceutical activity” (Adir et Compagnie, priority 1992, dated 1995).

Like-named read-outs stand apart in the source and are kept apart here.

For test [1], the target named is T1, 5HT1A receptors (Rattus norvegicus, UniProt P19327).
T1 sequence (P19327 1-422): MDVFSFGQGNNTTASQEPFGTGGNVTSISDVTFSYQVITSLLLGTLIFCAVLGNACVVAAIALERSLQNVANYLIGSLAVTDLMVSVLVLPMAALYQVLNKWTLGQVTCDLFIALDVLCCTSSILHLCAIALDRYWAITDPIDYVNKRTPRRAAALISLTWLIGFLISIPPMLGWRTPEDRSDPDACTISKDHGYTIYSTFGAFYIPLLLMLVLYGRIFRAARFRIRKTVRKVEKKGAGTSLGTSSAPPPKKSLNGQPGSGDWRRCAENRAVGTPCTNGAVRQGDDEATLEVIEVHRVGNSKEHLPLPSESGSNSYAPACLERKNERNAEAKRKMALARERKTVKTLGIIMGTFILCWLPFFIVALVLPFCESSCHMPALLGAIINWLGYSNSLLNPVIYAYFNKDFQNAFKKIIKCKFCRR
The experiment in a line: Flat body posture (FBP), agonist (alone) and antagonist (vs 8-OH-DPAT). Format: in vivo, rat (male Wistar). Also noted: from tissue; host or cells: whole living male Wistar rats (endogenous receptor). Particulars: for ED50: rat, sc. On the procedure:
(§1) The tests were carried out using male Wistar rats weighing 200 to 220 g having free access to their food and to their drinking water in standard cages.
(§2) The animals are isolated individually for the tests for hypothermia, corticosterone secretion and flat body posture, or combined in groups of three for the tailflick test.
(§3) The compounds to be studied were administered by the subcutaneous route (s.c.) 60 minutes before the beginning of the test, that is to say 30 minutes before the solvent (agonist responses) or the 8-OH-DPAT (antagonist responses).
(§4) In all of the tests the solvent is used in parallel as a control. The animals were left to rest in their cage during the period between the injections and the evaluation. For the agonist studies, the solvent was administered at 1 ml/kg s.c. 30 minutes before the beginning of the test. For the antagonist studies, doses of 8-OH-DPAT that induce sub-maximal responses were chosen, that is doses of 0.63, 0.16, 0.16 and 0.16 mg/kg s.c. for, respectively, the tail flick test, flat body posture test, corticosterone secretion test and hypothermia test.
(§5) The same animals were used to evaluate the influence of the compounds studied on FBP and on the determination of the plasma concentration of CS. All of the tests were carried out in the morning between 10.30 and 12.300 that is to say when the circadian levels of CS are lowest.
25 minutes after the treatment (that is to say 5 minutes before decapitation) the animals are observed in their cages and the presence or absence of FBP is noted.
(§6) The presence of FBP is defined by a characteristic posture of the animal. That posture is in the ventral decubitus position with the posterior limbs clearly extended. 5 minutes after the observation of FBP, the animals are decapitated and the blood from the trunk is collected in cooled tubes containing 50 μl of a 10% EDTA solution. After centrifugation at 4000 revs/min, the plasma is removed and stored at -30° C. until determination.
(§7) In general, after variance analysis, the results are subjected to the Dunett test. The results are taken as significant if p <0.05.
For the dose-response for the induction and inhibition of FBP, the ED50 values (doses at which 50% of the animals show a response) were calculated by the Litchfield and Wilcoxon method.
(§8) The doses of the compounds tested are all expressed in base terms. Unless specified otherwise, all of the compounds were dissolved in sterile water (to which if necessary a few drops of lactic acid were added) and administered at a volume of 1 ml/kg s.c.

The target of test [2] is T1, 5HT1A receptors. The experiment in a line: In vitro binding test, 5HT1A receptors ([3H]-8-OH-DPAT, hippocampus membranes). Also noted: The hippocampus of the brains of decapitated rats was immediately frozen; from tissue; host or cells: hippocampus membranes of male Wistar rats; species or system rat (male Wistar). On the procedure:
as §1
The hippocampus of the brains of decapitated rats was immediately frozen on solid carbon dioxide and then kept at -80° C. until preparation of the membranes. The tissue was homogenised at 4° C. in the appropriate buffer using a Polytron (Brinkman Instruments, Lucerne, Switzerland) and centrifuged at 20,000 revs/min.
Incubation was carried out for 30 minutes at 25° C. Non-specific binding was established by […] of 5HT. The tests were terminated by rapid filtration using a Brandel harvester through glass fibre filters pretreated with 0.1% polyethylene imine.
The IC50 values were determined in accordance with process 8 of Tallarida R. J. and Murray R. B., Manual of Pharmacological calculations with computer programs, Springer Verlag, New York, (1987).
The pKi was calculated in accordance with the following formula: [formula] wherein [L] is the concentration of the hot ligand (^[3] H-8-OH-DPAT, 0.4 nM) and Kd is the apparent dissociation constant determined from the saturation experiments.
The substances studied were dissolved in the incubation buffer.
Binding of 5HT1A receptors

Test [3] has as its target T1, 5HT1A receptors. The experiment in a line: Body temperature / hypothermia, agonist (alone) and antagonist (vs 8-OH-DPAT). Also noted: from tissue; host or cells: whole living male Wistar rats (endogenous receptor). Particulars: for HYPOTHERMIA MED alone: agonist test, compound alone s.c., minimum effective dose vs control; for ED50: rat, sc, antagonist test, s.c., vs 8-OH-DPAT 0.16 mg/kg s.c., read-out: HYPOTHERMIA ID50 (95% CL) + DPAT. It counts as in vivo, rat (male Wistar). On the procedure: as §1, §2, §3, §4
The rats are immobilised and a lubricated digital thermometer (Termistroprobe of Testotherm, Basle, Switzerland) is inserted into the rectum to a depth of 5 cm. 30 seconds after insertion, the temperature is read on a digital scale. The percentage inhibition is calculated using the formula given above.
as §7, §8

For test [4], the target named is T1, 5HT1A receptors. As to the kind of experiment: Corticosterone secretion (CS), agonist (alone) and antagonist (vs 8-OH-DPAT). The following applies: for CS secretion MED alone: agonist test, compound alone s.c., minimum effective dose vs control; for ED50: rat, sc, antagonist test, s.c., read-out: CS secretion ID50 (95% CL) + DPAT. Also noted: from tissue; host or cells: whole living male Wistar rats (endogenous receptor). Format: in vivo, rat (male Wistar). On the procedure: as §1, §2, §3, §4, §5, §6
The CS was determined by a radio-competitive determination for a plasma protein that binds the CS: transcortine. The latter is obtained from a monkey serum. The separation of the CS-transcortine complexes from the free CS was carried out by means of a solution of dextran and active carbon. The detection limit was 50 pg/tube. The intra- and inter-experiment variations in determination were 5 and 15% respectively [cf Rivet J. M. et al, Eur. J. Pharmacol., 183,634-635 (1990)].
The CS base rates in the plasma never being zero, the following formula was used to calculated the percentage inhibition of plasma CS induced by 8-OH-DPAT: [formula]
as §7, §8

Test [5] has as its target T1, 5HT1A receptors. As to the kind of experiment: Spontaneous tail flick (STF) test, agonist (alone) and antagonist (vs 8-OH-DPAT). Format: in vivo, rat (male Wistar). Also noted: from tissue; host or cells: whole living male Wistar rats (endogenous receptor). Particulars: rat, sc; antagonist test; s.c.; vs 8-OH-DPAT 0.63 mg/kg s.c.; read-out: STFs ID50 (95% CL) + DPAT. On the procedure: as §1, §2, §3, §4
The tail flicks were determined on the animals in horizontal opaque plastics cylinders with the tail of the animals hanging freely on the edge of the laboratory work bench. After allowing 5 minutes for adaptation, the number of movements made in 5 minutes was recorded. An STF is defined as being an elevation of the tail to a level higher than that of the axis of the body [Millan M. J. et al., J. Pharmacol. Exp. Ther., 256, 973-982 (1990)].
as §7, §8

The mark [6] stands for this setting: agonist test, compound alone s.c., read-out: FBP ED50 (95% CL) alone.
Setting [7] is: antagonist test, s.c., vs 8-OH-DPAT 0.16 mg/kg s.c., read-out: FBP ID50 (95% CL) + DPAT.
Setting [8] is: rat hippocampus, [3H]-8-OH-DPAT 0.4 nM, 30 min at 25° C, read-out: AFFINITY (pKi) (converted).

Consider `c1ccc(CCCN2CCN(c3cccc4c3OCCO4)CC2)cc1` [Example 12, 4-(Benzodioxan-5-yl)-1-(3-phenylpropyl)piperazine], for which the ED50 on 5HT1A receptors [1] (setting [6]) is over 2.5 mg/kg; at 5HT1A receptors [1] (setting [7]) it was under 2.5 mg/kg; at 5HT1A receptors [3] it was 0.63 mg/kg; on 5HT1A receptors [4] (vs 8-OH-DPAT 0.16 mg/kg s.c.) it was 2.5 mg/kg. For the same molecule, the Ki at 5HT1A receptors [2] (setting [8]) was 1.7 nM. Besides, at 5HT1A receptors [3], the “HYPOTHERMIA MED alone” value was over 2.5 mg/kg. Also, at 5HT1A receptors [4], the “CS secretion MED alone” value is over 2.5 mg/kg.
For the molecule `c1cc2c(c(N3CCN(CCc4cccc5ccccc45)CC3)c1)OCCO2` [Example 5, 4-(Benzodioxan-5-yl)-1-[2-(naphth-1-yl)ethyl]piperazine], the ED50 on 5HT1A receptors [1] (setting [6]) is over 2.5 mg/kg; at 5HT1A receptors [1] (setting [7]), under 2.5 mg/kg; on 5HT1A receptors [3], 0.32 mg/kg; on 5HT1A receptors [4] (vs 8-OH-DPAT 0.16 mg/kg s.c.), 2.5 mg/kg. Besides, the Ki on 5HT1A receptors [2] (setting [8]) was 1.29 nM. Further, the “HYPOTHERMIA MED alone” value at 5HT1A receptors [3] is reported as over 10.0 mg/kg. Moreover, on 5HT1A receptors [4], the “CS secretion MED alone” value is over 2.5 mg/kg.
In the case of `c1cc2c(c(N3CCN(CCc4ccc5ccccc5c4)CC3)c1)OCCO2` [Example 6, 4-(Benzodioxan-5-yl)-1-[2-(naphth-2-yl)ethyl]piperazine], at 5HT1A receptors [2] (setting [8]), the Ki is 1.02 nM.
Still for that read-out and setting: then `c1cc2c(c(N3CCN(CCCCc4ccsc4)CC3)c1)OCCO2` [Example 4, 4-(Benzodioxan-5-yl)-1-[4-(thiophen-3-yl)butyl]piperazine], with 0.38 nM.
Consider `c1cc2c(c(N3CCN(CCc4ccsc4)CC3)c1)OCCO2` [Example 11, 4-(Benzodioxan-5-yl)-1-[2-(thiophen-3-yl)ethyl]piperazine], for which the ED50 at 5HT1A receptors [1] (setting [6]) was over 2.5 mg/kg; on 5HT1A receptors [1] (setting [7]), under 2.5 mg/kg; on 5HT1A receptors [3], 0.16 mg/kg; at 5HT1A receptors [4] (vs 8-OH-DPAT 0.16 mg/kg s.c.) it was 2.5 mg/kg. Further, at 5HT1A receptors [2], the Ki was 1.2 nM. For the same molecule, the “HYPOTHERMIA MED alone” value at 5HT1A receptors [3] is on record as over 2.5 mg/kg. In addition, at 5HT1A receptors [4], the “CS secretion MED alone” value is on record as over 2.5 mg/kg.
With `c1cc2c(c(N3CCN(CCc4cc5ccsc5s4)CC3)c1)OCCO2` [Example 8, 4-(Benzodioxan-5-yl)-1-[2-(thieno[2,3-b]thiophen-2-yl)ethyl]piperazine], at 5HT1A receptors [2], the Ki is 0.589 nM.
Still for that read-out and setting: the value for `c1csc(CCN2CCN(c3cccc4c3OCCO4)CC2)c1` [Example 13, 4-(Benzodioxan-5-yl)-1-[2-(thiophen-2-yl)ethyl]piperazine] was 1.1 nM.
Same read-out and setting: the value for `c1cc2c(c(N3CCN(CCc4csc5ccccc45)CC3)c1)OCCO2` [Example 7, 4-(Benzodioxan-5-yl)-1-[2-(benzo[b]thiophen-3-yl)ethyl]piperazine] was 0.724 nM.
Consider `c1cc2c(c(N3CCN(CC4Cc5ccsc5C4)CC3)c1)OCCO2` (racemic) [Example 3], for which the ED50 on 5HT1A receptors [1] (setting [6]) was under 10 mg/kg; at 5HT1A receptors [1] (setting [7]) it was 1.6 mg/kg; on 5HT1A receptors [5], under 0.16 mg/kg; at 5HT1A receptors [3], 0.5 mg/kg; at 5HT1A receptors [4] (vs 8-OH-DPAT 0.16 mg/kg s.c.), 1.56 mg/kg. In addition, at 5HT1A receptors [1] (vs 8-OH-DPAT 0.16 mg/kg s.c.), the “% MPA (% maximum possible antagonism), FBP” value was determined as 100%. For the same molecule, at 5HT1A receptors [2] (setting [8]), the Ki is 1.7 nM. Besides, at 5HT1A receptors [3], the “HYPOTHERMIA MED alone” value is over 2.5 mg/kg. Further, the “CS secretion MED alone” value at 5HT1A receptors [4] is recorded as over 10.0 mg/kg. Further, the “% MPA (% maximum possible antagonism), CS secretion” value on 5HT1A receptors [4] (vs 8-OH-DPAT 0.16 mg/kg s.c.) turned out to be 100%.
